# Patent US8216783B2, “Over-expression and mutation of a tyrosine kinase receptor FGFR4 in tumors” (The United States of America, as represented by the …, priority 2008, dated 2012)
# Entries after “also recorded” stand apart in the source; their conditions may differ. Read-outs that look alike come from different tables or passages of the source.
# Legend:
# RH30 TRB H11.5 cells = test: In vitro growth of RH30 TRB H11.5 cells with or without dox; format: cell-based, human; conditions: RH30 TRB H11.5, 25 nM dox, 13 days, P=0.0021
# Procedure: FIG. 13B is a plot of RH30 TRB H11.5 cell growth with or without 25 nM dox for 120 hours.
# FIG. 13C is a plot of RH30TRB H11.5 cell number 13 days after treatment with or without 25 nM dox.
# Human rhabdomyosarcoma cell line RH30 was retrovirally transduced with vectors containing tetracycline repressor protein and ecotropic receptor. A tetracycline inducible shRNA construct targeting FGFR4 ([…], SEQ ID NO: 44) was used to transduce these RH30 cells as described previously (Ngo et al. Nature 441:106-110, 2006). Transduced RH30 cells were then subcloned. The subclone with the highest FGFR4 knockdown in the presence of doxycycline (dox) was used for in vitro and in vivo studies. The subclone chosen was designated as RH30 TRB H11.5 and was further transduced with a retroviral vector encoding luciferase. RH30 TRB H11.5 cells treated with or without 25 ng/ml doxycycline for 48 hours were harvested for Western blot for FGFR4 expression.
# [1] = system: RMS119 cells expressing FGFR4 N535K or V550E; test: Cell cycle assay (BrdU/7-AAD flow cytometry), apoptosis as subG1 fraction; format: cell-based, mouse; conditions: 5 uM for 24 hours
# Procedure: (§1) The effect of […] in RMS119 and RMS772 transfectants was determined using cell cycle assays. […] Cells were then pulsed with BrdU for 40 minutes, and then fixed, permeabilized, and treated with DNase, and followed by staining with mAb (BD Biosciences, Franklin Lakes, N.J.) against BrdU and with 7-AAD (BD Biosciences, Franklin Lakes, N.J.) respectively. Flow cytometry was used to analyze the cell cycle parameters.
# (§2) Apoptosis was assessed by determining the fraction of cells in the subG1 stage of the cell cycle. There were no differences in cell cycle parameters of RMS772 cells expressing TK domain mutants cultured in medium containing 10% FBS compared to vector or wild type FGFR4 (FIG. 9A).
# [2] = system: RMS772 cells expressing FGFR4 TK domain mutations N535K or V550E; test: as above; format: cell-based, mouse; conditions: 5 uM for 24 hours
# Procedure: as §1, §2
# [3] = system: RMS772 cells expressing FGFR4 N535K (K535) or V550E (E550); test: Activated caspase 3 positive cells in RMS772 transductants; format: cell-based, mouse; conditions: both mutant RMS772 cell lines, 20 μM, 24 hour treatment
# [4] = system: RMS772 cells expressing FGFR4 N535K (K535); test: Percent cell survival of transduced RMS772 cell lines with PD173074; format: cell-based; conditions: Mus musculus; RMS772 K535, 48 hours of treatment
# RH30 = test: IC50 of PD173074 for killing human RMS cell lines (RT-CES cell growth monitoring); format: cell-based; conditions: RH30 cell line
# Procedure: (§3) Briefly human RMS cell lines were seeded in the 96 well plate device at 5000-20,000 cells per well. […] Cell growth was monitored and IC50 values were calculated by Cell Office® (ACEA Biosciences, San Diego, Calif.).
# (§4) Expression level of FGFR4 mRNA for each cell line was determined by real-time PCR (FIG. 10).
# RH28 = test: as above; format: cell-based; conditions: RH28 cell line
# Procedure: as §3, §4
# RD = test: as above; format: cell-based; conditions: RD cell line
# Procedure: as §3, §4
# RH41 = test: as above; format: cell-based; conditions: RH41 cell line
# Procedure: as §3, §4
# RH36 = test: as above; format: cell-based; conditions: RH36 cell line
# Procedure: as §3, §4
# [5] = system: RMS772 cells expressing vector only; test: Percent cell survival of transduced RMS772 cell lines with PD173074; format: cell-based; conditions: Mus musculus; RMS772 vector control, 48 hours of treatment
# [6] = system: RMS772 cells expressing FGFR4 V550E (E550); test: as above; format: cell-based; conditions: Mus musculus; RMS772 E550, 48 hours of treatment
# [7] = system: RMS772 cells expressing wild type FGFR4; test: as above; format: cell-based; conditions: Mus musculus; RMS772 wild type FGFR4, 48 hours of treatment
# [8] = system: RMS772 cells expressing FGFR4 N535K or V550E; test: Relative cell number of RMS772 transductants treated with imatinib; format: cell-based, mouse; conditions: 10 μM, 24 hours
# Procedure: To determine the sensitivity of FGFR4 mutants (N535K and V550E) to imatinib, RMS772 transductants were treated with imatinib (ranging from 0 μM to 40 μM). After 24 hours, relative cell number (normalized with control) was plotted against imatinib dose.
# [9] = 24 hours, read-out: IC50 for killing, 24 hours
# [10] = 48 hours, read-out: IC50 for killing, 48 hours
# [11] = 72 hours, read-out: IC50 for killing, 72 hours
structure (smiles),measurement,setting,value
"C[C@H]1c2cccc(O)c2C(=O)C2=C(O)[C@]3(O)C(=O)C(C(N)=O)=C(O)[C@@H](N(C)C)[C@@H]3[C@@H](O)[C@@H]21 [dox, doxycycline]",reduction in growth after prolonged culture,RH30 TRB H11.5 cells,41%
CCN(CC)CCCCNc1ncc2cc(-c3cc(OC)cc(OC)c3)c(NC(=O)NC(C)(C)C)nc2n1 [PD173074],apoptosis / cell cycle effect of treatment,[1],not affected
same,apoptosis (SubG1 fraction) compared with cells transfected with vector or wild type FGFR4,[2],increase in apoptosis; also recorded: increased SubG1 fraction
same,"activated caspase 3 (cells positive, normalized to vector only)",[3],increased activated caspase 3
same,IC50,[4],8.2 µM
same,IC50,RH30; [9],10 µM
same,IC50,RH30; [10],8.32 µM
same,IC50,RH30; [11],8.11 µM
same,IC50,RH28; [9],2.22 µM
same,IC50,RH28; [10],0.66 µM
same,IC50,RH28; [11],0.5 µM
same,IC50,RD; [9],57.1 µM
same,IC50,RD; [10],29.7 µM
same,IC50,RD; [11],20.2 µM
same,IC50,RH41; [9],2.55 µM
same,IC50,RH41; [10],0.96 µM
same,IC50,RH41; [11],0.76 µM
same,IC50,RH36; [9],25.9 µM
same,IC50,RH36; [10],17.6 µM
same,IC50,RH36; [11],20.2 µM
same,IC50,[5],12.7 µM
same,IC50,[6],5.9 µM
same,IC50,[7],11.8 µM
"Cc1ccc(NC(=O)c2ccc(CN3CCN(C)CC3)cc2)cc1Nc1nccc(-c2cccnc2)n1 [imatinib, 4-[(4-methylpiperazin-1-yl)methyl]-N-[4-methyl-3-[(4-pyridin-3-ylpyrimidin-2-yl)amino]-phenyl]-benzamide]",sensitivity (relative cell number) of FGFR4 mutants versus wild type FGFR4 or control cells,[8],more sensitive
